Test results reported in patent publication US20220098620A1, “NOVEL NUCLEIC ACID MODIFIERS” (THE BROAD INSTITUTE, INC., priority 2019, published 2022).

Test system: GAPDH locus
Assay: HiBiT sequence knock-in assay (NanoLuc luciferase complementation)
Format: cell-based
Description: FIG. 39A-39E—Schematic of the HiBiT assay to check the HDR-mediated knock-in of the 33-nt DNA fragment. (FIG. 39A) General gRNA and ssODN design strategy for HDR-based HiBiT sequence knock-in right before the stop codon of the gene of interest. (FIG. 39B) The knock-in results in the expression of a fusion protein having a C-terminal HiBiT tag, which is a small fragment of the NanoLuc luciferase. When an excess amount of the other fragment of NanoLuc (LgBiT) is supplied, a fully functional NanoLuc is reconstituted. The resulting luminescence signal is proportional to the HDR efficiency. […]
Applicants then designed an ssODN that would insert a 33-nt DNA fragment (HiBiT sequence) at a gene of interest by HDR pathway (FIG. 39A). […] When complemented by LgBiT, the remainder of NanoLuc, the full-length luciferase is reconstituted to generate a luminescence signal proportional to the degree of ssODN incorporation, providing an easy readout for measuring the level of HDR (FIG. 39B). Applicants chose GAPDH as the first target gene (FIG. 39C) owing to its abundant expression in many cell types, which should allow for the reliable detection of the luminescence signal. […] Using the negative control ssODN without the complementary sequence, Applicants determined if appending the DNA adaptor to the cysteine affected Cas9 activity using the HiBiT insertion assay (FIG. 13b). […]

HDR enhancement by NHEJ pathway inhibitors in the HiBiT assay	Compound
enhanced HDR enhancement	CCN1CCN(CC(=O)Nc2ccc(-c3cccc4c(=O)cc(N5CCOCC5)oc34)c3sc4ccccc4c23)CC1 [KU-0060648]
enhanced HDR enhancement	O=c1cc(N2CCOCC2)oc2c(-c3cccc4c3sc3ccccc34)cccc12 [KU-57788]
